Measured values published in patent US12643879B2, “Functionalized heterocyclic compounds as modulators of stimulator of interferon genes (STING)” (RYVU THERAPEUTICS S.A., priority 2019, dated 2026).
Where a name gives a salt, the structure may show the parent alone.

What was measured:
[1] = test system: interferon regulatory factor (IRF) pathway in THP-1 dual cells; experiment: THP-1 Dual reporter assay, IRF pathway (luciferase); type: cell-based; details: 18 h stimulation, luminescence; for EC50: Homo sapiens, THP1-Dual, read-out: THP1 Dual EC50 (μM) IRF
How it was run: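 Compounds (STING agonists) stimulated THP-1 dual cells for 18 h; the cells carry an ISG54 promoter/ISRE-driven luciferase (IRF) and an IFN-β minimal promoter/NF-κB element-driven SEAP. Luciferase in conditioned medium was read by luminescence immediately; SEAP by absorbance at 630 or 655 nm after 1 or 2 h at 37° C.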

human STING = human STING (Homo sapiens, UniProt Q86WV6); experiment: Fluorescence Thermal Shift assay (binding to STING); details: STING 0.1 mg/mL, SyproOrange, 25 to 99° C.
Experimental: Compounds, constructs and conjugates of the present invention were tested for binding to human STING in Fluorescence Thermal Shift assay. STING was preincubated with the compounds for 20 minutes in 50 mM Hepes, 150 mM NaCl, pH 7.5 in 15 or 16 μl volume, following by adding 4 μl of SyproOrange dye dilution (ThermoFisher, cat no. S-6651). Final STING concentration was 0.1 mg/mL. Thermal unfolding was performed in Real-Time PCR QuantStudio 6 Flex System (Applied Biosystems), from 25 to 99° C., with continuous ramp mode and ramp rate 0.033° C./s. The data were analyzed using Protein Thermal Shift Software (ThermoFisher).

[2] = test system: NF-κB pathway in THP-1 dual cells; experiment: THP-1 Dual reporter assay, NF-κB pathway (SEAP); type: cell-based; details: 18 h stimulation, absorbance at 630 or 655 nm; for EC50: Homo sapiens, THP1-Dual, read-out: THP1 Dual EC50 (μM) NFkB
How it was run: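 Dual-reporter THP-1 cells treated 18 h with STING agonist; secreted luciferase (IRF) and SEAP (NF-κB) quantified from medium by luminescence and colorimetric absorbance, respectively.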

Chain of human STING (Q86WV6 whole entry H232R): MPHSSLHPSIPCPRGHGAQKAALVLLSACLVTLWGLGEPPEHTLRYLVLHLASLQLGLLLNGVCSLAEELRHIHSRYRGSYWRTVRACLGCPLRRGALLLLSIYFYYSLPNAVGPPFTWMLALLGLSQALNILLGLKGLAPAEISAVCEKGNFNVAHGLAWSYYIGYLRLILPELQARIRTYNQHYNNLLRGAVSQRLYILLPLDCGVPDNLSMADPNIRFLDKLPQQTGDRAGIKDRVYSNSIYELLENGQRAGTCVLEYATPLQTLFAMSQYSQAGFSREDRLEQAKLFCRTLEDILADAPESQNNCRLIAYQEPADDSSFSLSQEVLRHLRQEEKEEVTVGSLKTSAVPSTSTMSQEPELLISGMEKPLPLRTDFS

EC50 [1] [µM] | hSTING FTS binding assay (ΔT C. °) (human STING) | EC50 [2] [µM] | THP1 Dual EC50 (μM) IRF [1] | THP1 Dual EC50 (μM) NFkB [2] | Compound
< 1 | +++ (+++=ΔTm ≥20° C.) | < 1 |  |  | Cc1ccc(N2CCC[C@H](N(Cc3ccnc(C)c3)Cc3cn(C4CC4)c4cc(N5CC[C@H](N)C5)c(F)cc4c3=O)C2)cn1.Cl [Example 13, 7-[(3S)-3-Aminopyrrolidin-1-yl]-1-cyclopropyl-6-fluoro-3-({[(3S)-1-(6-methylpyridin-3-yl)piperidin-3-yl][(2-methylpyridin-4-yl)methyl]amino}methyl)-1,4-dihydroquinolin-4-one hydrochloride]
< 1 | +++ (+++=ΔTm ≥20° C.) | < 1 |  |  | Cc1ccc(N2CCC[C@H](N(Cc3ccnc(C)c3)Cc3cn(C4CC4)c4cc(N5CCC[C@@H](O)C5)c(F)cc4c3=O)C2)cn1.Cl [Example 28, 1-cyclopropyl-6-fluoro-7-[(3R)-3-hydroxypiperidin-1-yl]-3-({[(3S)-1-(6-methylpyridin-3-yl)piperidin-3-yl][(2-methylpyridin-4-yl)methyl]amino}methyl)-1,4-dihydroquinolin-4-one hydrochloride]
< 1 | +++ (+++=ΔTm ≥20° C.) | < 1 |  |  | Cc1ccc(N2CCC[C@H](N(Cc3ccnc(C)c3)Cc3cn(C4CC4)c4cc(NCCN)c(F)cc4c3=O)C2)cn1 [Example 8, 7-[(2-Aminoethyl)amino]-1-cyclopropyl-6-fluoro-3-({[(3S)-1-(6-methylpyridin-3-yl)piperidin-3-yl][(2-methylpyridin-4-yl)methyl]amino}methyl)-1,4-dihydroquinolin-4-one]
< 1 | +++ (+++=ΔTm ≥20° C.) | < 1 |  |  | Cc1ccc(N2CCC[C@H](N(Cc3ccnc(C)c3)Cc3cn(C4CC4)c4cc(N5CC[C@@H](CN)C5)c(F)cc4c3=O)C2)cn1.Cl [Example 20, 7-[(3S)-3-(aminomethyl)pyrrolidin-1-yl]-1-cyclopropyl-6-fluoro-3-({[(3S)-1-(6-methylpyridin-3-yl)piperidin-3-yl][(2-methylpyridin-4-yl)methyl]amino}methyl)-1,4-dihydroquinolin-4-one hydrochloride]
 | +++ (+++=ΔTm ≥20° C.) |  | + + + | + + + | Cc1ccc(N2CCC[C@H](N(Cc3ccnc(C)c3)Cc3cn(C4CC4)c4cc(OCCO)c(F)cc4c3=O)C2)cn1 [Example 47, 1-Cyclopropyl-6-fluoro-7-(2-hydroxyethoxy)-3-({[(3S)-1-(6-methylpyridin-3-yl)piperidin-3-yl][(2-methylpyridin-4-yl)methyl]amino}methyl)-1,4-dihydroquinolin-4-one]
< 1 | +++ (+++=ΔTm ≥20° C.) | < 1 |  |  | CN[C@H]1CCN(c2cc3c(cc2F)c(=O)c(CN(Cc2ccnc(C)c2)[C@H]2CCCN(c4ccc(C)nc4)C2)cn3C2CC2)C1.Cl [Example 58, 1-cyclopropyl-6-fluoro-7-[(3S)-3-(methylamino)pyrrolidin-1-yl]-3-({[(3S)-1-(6-methylpyridin-3-yl)piperidin-3-yl][(2-methylpyridin-4-yl)methyl]amino}methyl)-1,4-dihydroquinolin-4-one hydrochloride]
< 1 | +++ (+++=ΔTm ≥20° C.) | < 1 |  |  | Cc1ccc(N2CCC[C@H](N(Cc3ccnc(C)c3)Cc3cn(C4CC4)c4cc(OCCN)c(F)cc4c3=O)C2)cn1 [Example 10, 7-(2-Aminoethoxy)-1-cyclopropyl-6-fluoro-3-({[(3S)-1-(6-methylpyridin-3-yl)piperidin-3-yl][(2-methylpyridin-4-yl)methyl]amino}methyl)-1,4-dihydroquinolin-4-one]
< 1 | +++ (+++=ΔTm ≥20° C.) | < 1 |  |  | CNC1CCN(c2cc3c(cc2F)c(=O)c(CN(Cc2ccnc(C)c2)[C@H]2CCCN(c4ccc(C)nc4)C2)cn3C2CC2)C1 (stereo partly drawn) [Example 33, 1-cyclopropyl-6-fluoro-7-[3-(methylamino)pyrrolidin-1-yl]-3-({[(3S)-1-(6-methylpyridin-3-yl)piperidin-3-yl][(2-methylpyridin-4-yl)methyl]amino}methyl)-1,4-dihydroquinolin-4-one]
< 1 | +++ (+++=ΔTm ≥20° C.) | < 1 |  |  | CNCCOc1cc2c(cc1F)c(=O)c(CN(Cc1ccnc(C)c1)[C@H]1CCCN(c3ccc(C)nc3)C1)cn2C1CC1.Cl [Example 11, 1-Cyclopropyl-6-fluoro-7-[2-(methylamino)ethoxy]-3-({[(3S)-1-(6-methylpyridin-3-yl)piperidin-3-yl][(2-methylpyridin-4-yl)methyl]amino}methyl)-1,4-dihydroquinolin-4-one hydrochloride]

Continued, molecule first:

Compound | EC50 [1] [µM] | hSTING FTS binding assay (ΔT C. °) (human STING) | EC50 [2] [µM] | THP1 Dual EC50 (μM) IRF [1] | THP1 Dual EC50 (μM) NFkB [2]
Cc1cc(CN(Cc2cn(C)c3ccccc3c2=O)[C@H]2CCCN(c3cccc(N)c3)C2)ccn1.Cl [Example 1, 3-({[(3S)-1-(3-Aminophenyl)piperidin-3-yl][(2-methylpyridin-4-yl)methyl]amino}methyl)-1-methyl-1,4-dihydroquinolin-4-one hydrochloride] | 1 to 10 | + (+=ΔTm ≤10° C.) | 1 to 10 |  | 
Cc1ccc(N2CCC[C@H](N(Cc3ccnc(C)c3)Cc3cn(C4CC4)c4cc(N5CC[C@H](CN)C5)c(F)cc4c3=O)C2)cn1 [Example 15, 7-[(3R)-3-(Aminomethyl)pyrrolidin-1-yl]-1-cyclopropyl-6-fluoro-3-({[(3S)-1-(6-methylpyridin-3-yl)piperidin-3-yl][(2-methylpyridin-4-yl)methyl]amino}methyl)-1,4-dihydroquinolin-4-one hydrochloride] | < 1 | +++ (+++=ΔTm ≥20° C.) | < 1 |  | 
Cc1ccc(N2CCC[C@H](N(Cc3ccnc(C)c3)Cc3cn(C4CC4)c4nc(N5CC[C@@H](O)C5)c(F)cc4c3=O)C2)cn1.Cl [Example 37, 1-cyclopropyl-6-fluoro-7-[(3R)-3-hydroxypyrrolidin-1-yl]-3-({[(3S)-1-(6-methylpyridin-3-yl)piperidin-3-yl][(2-methylpyridin-4-yl)methyl]amino}methyl)-1,4-dihydro-1,8-naphthyridin-4-one hydrochloride] | < 1 | +++ (+++=ΔTm ≥20° C.) | < 1 |  | 
Cc1ccc(N2CCC[C@H](N(Cc3ccnc(C)c3)Cc3cn(C4CC4)c4cc(N5CC(CO)C5)c(F)cc4c3=O)C2)cn1 [Example 27, 1-cyclopropyl-6-fluoro-7-[3-(hydroxymethyl)azetidin-1-yl]-3-({[(3S)-1-(6-methylpyridin-3-yl)piperidin-3-yl][(2-methylpyridin-4-yl)methyl]amino}methyl)-1,4-dihydroquinolin-4-one] | < 1 | +++ (+++=ΔTm ≥20° C.) | < 1 |  | 
Cc1cc(CN(Cc2cn(C)c3ccccc3c2=O)[C@H]2CCCN(c3ccc(CN)nc3)C2)ccn1.Cl [Example 3, 3-({[(3S)-1-[6-(Aminomethyl)pyridin-3-yl]piperidin-3-yl][(2-methylpyridin-4-yl)methyl]amino}methyl)-1-methyl-1,4-dihydroquinolin-4-one hydrochloride] | < 1 | + (+=ΔTm ≤10° C.) | 1 to 10 |  | 
Cc1ccc(N2CCC[C@H](N(Cc3ccnc(C)c3)Cc3cn(C4CC4)c4cc(N5CCC(N)C(F)(F)C5)c(F)cc4c3=O)C2)cn1 (stereo partly drawn) [Example 26, 7-(4-amino-3,3-difluoropiperidin-1-yl)-1-cyclopropyl-6-fluoro-3-({[(3S)-1-(6-methylpyridin-3-yl)piperidin-3-yl][(2-methylpyridin-4-yl)methyl]amino}methyl)-1,4-dihydroquinolin-4-one] | < 1 | +++ (+++=ΔTm ≥20° C.) | < 1 |  | 
Cc1ccc(N2CCC[C@H](N(Cc3ccnc(C)c3)Cc3cn(C4CC4)c4cc(N5CC(N)C6(CC6)C5)c(F)cc4c3=O)C2)cn1.Cl (stereo partly drawn) [Example 22, 7-{7-amino-5-azaspiro[2.4]heptan-5-yl}-1-cyclopropyl-6-fluoro-3-({[(3S)-1-(6-methylpyridin-3-yl)piperidin-3-yl][(2-methylpyridin-4-yl)methyl]amino}methyl)-1,4-dihydroquinolin-4-one hydrochloride] | < 1 | +++ (+++=ΔTm ≥20° C.) | < 1 |  | 
Cc1cc(CN(Cc2cn(C3COC3)c3ccccc3c2=O)[C@H]2CCCN(c3ccc(N)nc3)C2)ccn1 [Example 35, 3-({[(3S)-1-(6-aminopyridin-3-yl)piperidin-3-yl][(2-methylpyridin-4-yl)methyl]amino}methyl)-1-(oxetan-3-yl)-1,4-dihydroquinolin-4-one] | < 1 | +++ (+++=ΔTm ≥20° C.) | < 1 |  | 
Cc1cnc(N2C[C@@H](F)C[C@H](N(Cc3ccnc(C)c3)Cc3cn(C4CC4)c4cc(N5CCC[C@H](O)C5)c(F)cc4c3=O)C2)cn1 [Example 82, 1-cyclopropyl-6-fluoro-3-({[(3S,5S)-5-fluoro-1-(5-methylpyrazin-2-yl)piperidin-3-yl][(2-methylpyridin-4-yl)methyl]amino}methyl)-7-[(3S)-3-hydroxypiperidin-1-yl]-1,4-dihydroquinolin-4-one] | < 1 | ++ (++=10<ΔTm <20° C.) | < 1 |  | 
